Experimental data as given in patent US10351575B2, “Bicyclic urea, thiourea, guanidine and cyanoguanidine compounds useful for the treatment of pain” (Array BioPharma Inc., priority 2012, dated 2019).

How the values were obtained:
Assay in all cases: KinaseProfiler off-target kinase profiling
Type in all cases: biochemical
Details in all cases: 10 μM, ATP near Km
ALK4 = ALK4 (Homo sapiens (Human), UniProt P36896)
Protocol: (§1) Representative compounds (Examples 12, 32, 26 and 2) of the invention were tested for off-target kinase activity at a concentration of 10 μM by Millipore, Inc. in their KinaseProfiler™ service against all the kinases available in their full kinase panel. Compounds were run in duplicate at a concentration of ATP near the Km for each individual kinase according to Millipore's specifications. The results are shown in Table B. Data are reported as percent of control (POC) and are the average of the two replicates.

MKK4_m = MKK4_m (Mus musculus (Mouse), UniProt P47809)
Protocol: as §1

TSSK1 = TSSK1 (Homo sapiens (Human), UniProt Q9BXA7)
Protocol: as §1

Hck = Hck (Homo sapiens (Human), UniProt P08631)
Protocol: as §1

TSSK2 = TSSK2 (Homo sapiens (Human), UniProt Q96PF2)
Protocol: as §1

IR = IR (Homo sapiens (Human), UniProt P06213)
Protocol: as §1

HIPK2 = HIPK2 (Homo sapiens (Human), UniProt Q9H2X6)
Protocol: as §1

MAPKAP-K5 = MAPKAP-K5 (Homo sapiens (Human), UniProt Q8IW41)
Protocol: as §1

CAMK4 = CAMK4 (Homo sapiens (Human), UniProt Q16566)
Protocol: as §1

SRC = SRC (Homo sapiens (Human), UniProt P12931)
Protocol: as §1

IGF-1R Activated = IGF-1R Activated (Homo sapiens (Human), UniProt P08069)
Protocol: as §1

Rsk2 = Rsk2 (Homo sapiens (Human), UniProt P51812)
Protocol: as §1

PASK = PASK (Homo sapiens (Human), UniProt Q96RG2)
Protocol: as §1

DAPK3 = DAPK3 (Homo sapiens (Human), UniProt O43293)
Protocol: as §1

CLK3 = CLK3 (Homo sapiens (Human), UniProt P49761)
Protocol: as §1

Plk1 = Plk1 (Homo sapiens (Human), UniProt P53350)
Protocol: as §1

Rsk1 = Rsk1 (Homo sapiens (Human), UniProt Q15418)
Protocol: as §1

MSK2 = MSK2 (Homo sapiens (Human), UniProt O75676)
Protocol: as §1

CSK = CSK (Homo sapiens (Human), UniProt P41240)
Protocol: as §1

MRCKbeta = MRCKbeta (Homo sapiens (Human), UniProt Q9Y5S2)
Protocol: as §1

TrkB = TrkB (Homo sapiens (Human), UniProt Q16620)
Protocol: as §1

EphA5 = EphA5 (Homo sapiens (Human), UniProt P54756)
Protocol: as §1

STK33 = STK33 (Homo sapiens (Human), UniProt Q9BYT3)
Protocol: as §1

EGFR = EGFR (Homo sapiens (Human), UniProt P00533)
Protocol: as §1

AURKA = AURKA (Homo sapiens (Human), UniProt O14965)
Protocol: as §1

JAK2 = JAK2 (Homo sapiens (Human), UniProt O60674)
Protocol: as §1

p38gamma = p38gamma (Homo sapiens (Human), UniProt P53778)
Protocol: as §1

Haspin = Haspin (Homo sapiens (Human), UniProt Q8TF76)
Protocol: as §1

PTK5 = PTK5 (Homo sapiens (Human), UniProt P42685)
Protocol: as §1

Abl-P = Abl-P (Homo sapiens (Human), UniProt P00519)
Protocol: as §1

IRAK4 = IRAK4 (Homo sapiens (Human), UniProt Q9NWZ3)
Protocol: as §1

WNK2 = WNK2 (Homo sapiens (Human), UniProt Q9Y3S1)
Protocol: as §1

EphB2 = EphB2 (Homo sapiens (Human), UniProt P29323)
Protocol: as §1

ULK2 = ULK2 (Homo sapiens (Human), UniProt Q8IYT8)
Protocol: as §1

PKCepsilon = PKCepsilon (Homo sapiens (Human), UniProt Q02156)
Protocol: as §1

CAMK2d = CAMK2d (Homo sapiens (Human), UniProt Q13557)
Protocol: as §1

PDGFRalpha = PDGFRalpha (Homo sapiens (Human), UniProt P16234)
Protocol: as §1

p70S6K = p70S6K (Homo sapiens (Human), UniProt P23443)
Protocol: as §1

FAK = FAK (Homo sapiens (Human), UniProt Q05397)
Protocol: as §1

Sequence of Abl-P (P00519 27-1130 limits assumed): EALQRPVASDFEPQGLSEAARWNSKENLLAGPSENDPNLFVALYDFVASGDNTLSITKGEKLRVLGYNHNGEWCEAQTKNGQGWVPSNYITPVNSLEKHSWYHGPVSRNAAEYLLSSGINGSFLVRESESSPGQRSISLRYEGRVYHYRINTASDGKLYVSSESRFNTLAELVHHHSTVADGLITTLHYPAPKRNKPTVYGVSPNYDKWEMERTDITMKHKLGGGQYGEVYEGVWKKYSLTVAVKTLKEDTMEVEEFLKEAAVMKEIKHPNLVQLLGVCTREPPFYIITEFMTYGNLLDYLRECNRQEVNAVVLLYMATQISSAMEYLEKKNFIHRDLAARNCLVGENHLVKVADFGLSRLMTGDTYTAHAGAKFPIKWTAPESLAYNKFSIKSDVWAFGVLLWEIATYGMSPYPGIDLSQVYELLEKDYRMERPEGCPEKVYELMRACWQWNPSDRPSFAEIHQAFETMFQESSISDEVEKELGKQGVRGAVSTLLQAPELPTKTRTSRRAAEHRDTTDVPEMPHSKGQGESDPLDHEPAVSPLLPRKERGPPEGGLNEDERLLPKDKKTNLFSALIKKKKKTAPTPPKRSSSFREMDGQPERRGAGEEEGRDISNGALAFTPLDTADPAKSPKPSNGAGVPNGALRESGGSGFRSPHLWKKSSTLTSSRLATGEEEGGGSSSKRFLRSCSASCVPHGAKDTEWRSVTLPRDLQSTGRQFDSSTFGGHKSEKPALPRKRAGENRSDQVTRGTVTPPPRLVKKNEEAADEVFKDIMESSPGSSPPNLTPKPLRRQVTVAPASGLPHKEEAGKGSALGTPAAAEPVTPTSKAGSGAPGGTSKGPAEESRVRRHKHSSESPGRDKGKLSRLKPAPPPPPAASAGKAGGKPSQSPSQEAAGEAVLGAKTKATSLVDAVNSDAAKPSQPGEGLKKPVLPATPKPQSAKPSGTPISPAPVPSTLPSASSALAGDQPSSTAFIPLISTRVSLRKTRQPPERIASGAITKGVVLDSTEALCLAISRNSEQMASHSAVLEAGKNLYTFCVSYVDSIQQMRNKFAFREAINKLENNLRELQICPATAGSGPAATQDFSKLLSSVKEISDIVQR
Sequence of CAMK2d (Q13557 whole entry): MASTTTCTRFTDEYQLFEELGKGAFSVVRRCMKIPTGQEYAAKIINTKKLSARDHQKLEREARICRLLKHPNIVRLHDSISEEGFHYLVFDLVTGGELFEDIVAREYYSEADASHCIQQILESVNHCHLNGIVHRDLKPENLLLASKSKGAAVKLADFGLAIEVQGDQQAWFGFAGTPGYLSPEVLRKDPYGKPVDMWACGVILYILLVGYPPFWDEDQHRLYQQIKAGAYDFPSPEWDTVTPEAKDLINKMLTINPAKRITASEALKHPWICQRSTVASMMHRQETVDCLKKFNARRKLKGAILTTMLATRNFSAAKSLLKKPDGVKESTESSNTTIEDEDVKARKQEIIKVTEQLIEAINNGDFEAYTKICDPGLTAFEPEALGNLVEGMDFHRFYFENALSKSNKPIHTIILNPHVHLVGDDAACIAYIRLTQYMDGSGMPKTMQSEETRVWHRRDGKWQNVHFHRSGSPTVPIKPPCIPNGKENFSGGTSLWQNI
Sequence of IRAK4 (Q9NWZ3 whole entry): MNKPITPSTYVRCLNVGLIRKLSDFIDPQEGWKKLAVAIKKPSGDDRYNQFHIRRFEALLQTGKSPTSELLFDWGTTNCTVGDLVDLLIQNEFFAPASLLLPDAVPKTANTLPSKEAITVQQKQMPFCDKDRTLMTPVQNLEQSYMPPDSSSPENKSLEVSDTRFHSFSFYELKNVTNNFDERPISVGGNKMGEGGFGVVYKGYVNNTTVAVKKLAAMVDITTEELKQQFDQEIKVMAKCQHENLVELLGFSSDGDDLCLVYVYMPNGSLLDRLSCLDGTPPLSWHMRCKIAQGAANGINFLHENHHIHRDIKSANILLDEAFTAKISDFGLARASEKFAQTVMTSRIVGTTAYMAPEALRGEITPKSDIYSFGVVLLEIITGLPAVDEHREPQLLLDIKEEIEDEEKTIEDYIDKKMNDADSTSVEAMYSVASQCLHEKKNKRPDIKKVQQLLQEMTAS
Sequence of WNK2 (Q9Y3S1 whole entry): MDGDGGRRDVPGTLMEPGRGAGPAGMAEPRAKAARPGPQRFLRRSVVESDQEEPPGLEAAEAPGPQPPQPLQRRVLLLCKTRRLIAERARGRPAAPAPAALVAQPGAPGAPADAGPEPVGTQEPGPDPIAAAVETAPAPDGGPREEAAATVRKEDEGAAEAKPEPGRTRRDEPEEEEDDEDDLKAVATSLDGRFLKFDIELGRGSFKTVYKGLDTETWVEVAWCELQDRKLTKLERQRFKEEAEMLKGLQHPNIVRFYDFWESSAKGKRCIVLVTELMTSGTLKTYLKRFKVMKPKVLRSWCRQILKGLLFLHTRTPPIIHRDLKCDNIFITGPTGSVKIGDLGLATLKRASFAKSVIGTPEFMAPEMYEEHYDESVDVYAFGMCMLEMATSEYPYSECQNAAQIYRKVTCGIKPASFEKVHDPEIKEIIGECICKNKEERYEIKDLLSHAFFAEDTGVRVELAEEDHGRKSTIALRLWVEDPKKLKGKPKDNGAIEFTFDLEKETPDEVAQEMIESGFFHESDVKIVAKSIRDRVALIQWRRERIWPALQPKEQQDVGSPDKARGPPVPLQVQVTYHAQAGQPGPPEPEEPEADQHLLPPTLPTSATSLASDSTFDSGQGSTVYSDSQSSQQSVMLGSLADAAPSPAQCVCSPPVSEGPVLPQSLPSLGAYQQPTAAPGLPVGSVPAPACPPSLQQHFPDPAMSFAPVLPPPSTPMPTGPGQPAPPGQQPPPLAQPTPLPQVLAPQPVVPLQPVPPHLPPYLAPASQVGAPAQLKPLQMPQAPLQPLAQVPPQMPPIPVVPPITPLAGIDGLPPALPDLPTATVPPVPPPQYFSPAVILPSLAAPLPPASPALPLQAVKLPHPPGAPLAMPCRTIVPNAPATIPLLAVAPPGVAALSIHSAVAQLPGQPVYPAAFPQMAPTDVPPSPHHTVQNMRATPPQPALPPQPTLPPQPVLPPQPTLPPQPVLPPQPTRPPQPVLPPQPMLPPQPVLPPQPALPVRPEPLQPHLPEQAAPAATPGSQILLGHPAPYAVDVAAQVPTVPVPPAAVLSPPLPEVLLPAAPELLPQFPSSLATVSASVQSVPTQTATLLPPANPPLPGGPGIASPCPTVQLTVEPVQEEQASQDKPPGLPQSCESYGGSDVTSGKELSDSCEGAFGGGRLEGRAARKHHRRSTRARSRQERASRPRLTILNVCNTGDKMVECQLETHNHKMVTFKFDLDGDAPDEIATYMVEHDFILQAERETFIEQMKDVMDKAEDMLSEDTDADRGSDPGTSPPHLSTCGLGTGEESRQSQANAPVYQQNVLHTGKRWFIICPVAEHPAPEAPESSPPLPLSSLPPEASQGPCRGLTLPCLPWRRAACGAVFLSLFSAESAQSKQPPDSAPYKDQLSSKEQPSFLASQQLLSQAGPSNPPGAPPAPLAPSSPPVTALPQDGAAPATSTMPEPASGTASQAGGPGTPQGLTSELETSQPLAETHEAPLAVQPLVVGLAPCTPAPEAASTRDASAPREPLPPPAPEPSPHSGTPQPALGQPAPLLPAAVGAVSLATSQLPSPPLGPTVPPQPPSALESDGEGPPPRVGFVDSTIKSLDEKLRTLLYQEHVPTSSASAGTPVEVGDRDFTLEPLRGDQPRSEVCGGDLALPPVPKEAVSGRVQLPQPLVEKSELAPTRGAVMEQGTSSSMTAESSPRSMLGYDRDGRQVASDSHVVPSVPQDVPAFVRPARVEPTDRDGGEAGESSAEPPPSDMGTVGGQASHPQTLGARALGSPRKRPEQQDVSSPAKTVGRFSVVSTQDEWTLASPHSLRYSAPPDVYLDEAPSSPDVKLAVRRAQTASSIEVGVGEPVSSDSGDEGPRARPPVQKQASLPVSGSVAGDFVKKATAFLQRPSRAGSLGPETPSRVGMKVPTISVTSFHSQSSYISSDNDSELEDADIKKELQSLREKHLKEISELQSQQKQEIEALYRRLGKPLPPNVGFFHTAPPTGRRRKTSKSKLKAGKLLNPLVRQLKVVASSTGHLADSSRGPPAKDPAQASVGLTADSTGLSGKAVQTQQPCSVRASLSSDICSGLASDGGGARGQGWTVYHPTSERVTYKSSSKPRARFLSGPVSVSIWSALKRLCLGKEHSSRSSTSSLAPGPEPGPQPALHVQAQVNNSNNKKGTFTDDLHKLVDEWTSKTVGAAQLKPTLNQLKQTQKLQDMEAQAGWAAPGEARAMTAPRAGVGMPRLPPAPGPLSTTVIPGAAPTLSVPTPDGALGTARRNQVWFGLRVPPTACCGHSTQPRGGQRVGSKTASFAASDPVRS
Sequence of Plk1 (P53350 whole entry): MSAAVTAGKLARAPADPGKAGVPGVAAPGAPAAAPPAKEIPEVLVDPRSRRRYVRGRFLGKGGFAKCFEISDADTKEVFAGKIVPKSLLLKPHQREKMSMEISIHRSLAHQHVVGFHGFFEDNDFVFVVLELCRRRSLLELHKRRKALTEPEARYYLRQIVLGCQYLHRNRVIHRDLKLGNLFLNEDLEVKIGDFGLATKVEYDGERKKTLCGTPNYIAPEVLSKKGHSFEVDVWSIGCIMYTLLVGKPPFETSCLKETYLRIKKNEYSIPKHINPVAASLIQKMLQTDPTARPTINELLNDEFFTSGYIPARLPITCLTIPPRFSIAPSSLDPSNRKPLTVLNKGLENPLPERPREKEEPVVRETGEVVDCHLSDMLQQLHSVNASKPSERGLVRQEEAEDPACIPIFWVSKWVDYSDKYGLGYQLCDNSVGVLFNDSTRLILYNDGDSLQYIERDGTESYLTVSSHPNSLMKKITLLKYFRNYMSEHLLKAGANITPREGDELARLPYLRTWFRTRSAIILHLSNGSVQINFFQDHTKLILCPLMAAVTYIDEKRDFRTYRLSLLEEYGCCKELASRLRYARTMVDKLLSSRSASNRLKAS

SMILES | Avg. POC (ALK4) [POC] | Avg. POC (MKK4_m) [POC] | Avg. POC (TSSK1) [POC] | Avg. POC (Hck) [POC] | Avg. POC (TSSK2) [POC] | Avg. POC (IR) [POC] | Avg. POC (HIPK2) [POC] | Avg. POC (MAPKAP-K5) [POC] | Avg. POC (CAMK4) [POC] | Avg. POC (SRC) [POC] | Avg. POC (IGF-1R Activated) [POC] | Avg. POC (Rsk2) [POC] | Avg. POC (PASK) [POC] | Avg. POC (DAPK3) [POC] | Avg. POC (CLK3) [POC] | Avg. POC (Plk1) [POC] | Avg. POC (Rsk1) [POC] | Avg. POC (MSK2) [POC] | Avg. POC (CSK) [POC] | Avg. POC (MRCKbeta) [POC] | also measured
Cc1c(-c2cnn(C)c2)nn(-c2ccccc2)c1NC(=O)N[C@H]1CCCc2ccccc21 [Example 2, (S)-1-(1′,4-dimethyl-1-phenyl-1H,1′H-3,4′-bipyrazol-5-yl)-3-(1,2,3,4-tetrahydronaphthalen-1-yl)urea] | 98.5 | 102.5 | 106 | 85.5 | 118.5 | 44 | 97 | 113.5 | 137.5 | 99.5 | 95 | 137 | 143 | 125.5 | 108 | 95 | 117 | 112 | 124 | 129.5 | Avg. POC (TrkB): −2 POC; Avg. POC (EphA5): 119 POC; Avg. POC (STK33): 110.5 POC; Avg. POC (EGFR): 114 POC; Avg. POC (AURKA): 126 POC; Avg. POC (JAK2): 233 POC; Avg. POC (p38gamma): 115 POC; Avg. POC (Haspin): 92.5 POC; Avg. POC (PTK5): 122 POC; Avg. POC (Abl-P): 146.5 POC; Avg. POC (IRAK4): 125.5 POC; Avg. POC (WNK2): 99 POC; Avg. POC (EphB2): 125 POC; Avg. POC (ULK2): 99 POC; Avg. POC (PKCepsilon): 101.5 POC; Avg. POC (CAMK2d): 119 POC; Avg. POC (PDGFRalpha): 123 POC; Avg. POC (p70S6K): 172 POC; Avg. POC (FAK): 116.5 POC
Cc1c(-c2cnn(C)c2)nn(-c2ccccc2)c1NC(=O)NC1CCOc2cc(F)ccc21 (stereo not drawn) [Example 12, 1-(1′,4-dimethyl-1-phenyl-1H,1′H-[3,4′-bipyrazol]-5-yl)-3-(7-fluorochroman-4-yl)urea] | 101 | 144.5 | 79 | 103.5 | 139 | 92 | 91.5 | 96 | 113.5 | 97 | 102.5 | 103 | 125.5 | 103 | 100 | 98.5 | 107.5 | 127 | 131.5 | 103.5 | Avg. POC (TrkB): 1 POC; Avg. POC (EphA5): 118.5 POC; Avg. POC (STK33): 106.5 POC; Avg. POC (EGFR): 109.5 POC; Avg. POC (AURKA): 111 POC; Avg. POC (JAK2): 122.5 POC; Avg. POC (p38gamma): 111 POC; Avg. POC (Haspin): 97 POC; Avg. POC (PTK5): 100 POC; Avg. POC (Abl-P): 135.5 POC; Avg. POC (IRAK4): 95.5 POC; Avg. POC (WNK2): 106.5 POC; Avg. POC (EphB2): 112 POC; Avg. POC (ULK2): 99 POC; Avg. POC (PKCepsilon): 97.5 POC; Avg. POC (CAMK2d): 110.5 POC; Avg. POC (PDGFRalpha): 104.5 POC; Avg. POC (p70S6K): 124.5 POC; Avg. POC (FAK): 104 POC
Cc1c(-c2ccc(=O)n(C)c2)nn(-c2ccccc2)c1NC(=O)NC1CN(CC(F)(F)F)Cc2ccccc21 (stereo not drawn) [Example 26, 1-(4-methyl-3-(1-methyl-6-oxo-1,6-dihydropyridin-3-yl)-1-phenyl-1H-pyrazol-5-yl)-3-(2-(2,2,2-trifluoroethyl)-1,2,3,4-tetrahydroisoquinolin-4-yl)urea] | 102.5 | 99.5 | 71.5 | 91.5 | 128 | 82.5 | 103 | 101.5 | 121 | 104.5 | 98 | 105.5 | 124.5 | 103 | 106 | 108 | 121 | 107.5 | 118.5 | 110 | Avg. POC (TrkB): 1.5 POC; Avg. POC (EphA5): 106.5 POC; Avg. POC (STK33): 111 POC; Avg. POC (EGFR): 108 POC; Avg. POC (AURKA): 107.5 POC; Avg. POC (JAK2): 134.5 POC; Avg. POC (p38gamma): 118 POC; Avg. POC (Haspin): 92 POC; Avg. POC (PTK5): 110 POC; Avg. POC (Abl-P): 131 POC; Avg. POC (IRAK4): 102 POC; Avg. POC (WNK2): 108 POC; Avg. POC (EphB2): 109.5 POC; Avg. POC (ULK2): 102 POC; Avg. POC (PKCepsilon): 106.5 POC; Avg. POC (CAMK2d): 99.5 POC; Avg. POC (PDGFRalpha): 104.5 POC; Avg. POC (p70S6K): 116 POC; Avg. POC (FAK): 105 POC
COCc1ccc2c(c1)C(NC(=O)Nc1c(C)c(-c3cnn(C)c3)nn1-c1ccccc1)COC2 (stereo not drawn) [Example 32, 1-(1′,4-dimethyl-1-phenyl-1H,1′H-[3,4′-bipyrazol]-5-yl)-3-(6-(methoxymethyl)isochroman-4-yl)urea] | 100.5 | 133 | 88.5 | 98 | 120.5 | 109 | 99.5 | 108 | 102 | 108.5 | 112.5 | 92.5 | 137 | 111 | 109 | 108 | 111.5 | 99.5 | 123 | 103 | Avg. POC (TrkB): −0.5 POC; Avg. POC (EphA5): 104.5 POC; Avg. POC (STK33): 115 POC; Avg. POC (EGFR): 102 POC; Avg. POC (AURKA): 112.5 POC; Avg. POC (JAK2): 122.5 POC; Avg. POC (p38gamma): 116.5 POC; Avg. POC (Haspin): 94 POC; Avg. POC (PTK5): 104 POC; Avg. POC (Abl-P): 124.5 POC; Avg. POC (IRAK4): 99 POC; Avg. POC (WNK2): 108.5 POC; Avg. POC (EphB2): 96.5 POC; Avg. POC (ULK2): 103 POC; Avg. POC (PKCepsilon): 97.5 POC; Avg. POC (CAMK2d): 108.5 POC; Avg. POC (PDGFRalpha): 112.5 POC; Avg. POC (p70S6K): 110.5 POC; Avg. POC (FAK): 116.5 POC
